Data: paper PMC5401710, “Peptides with 6-Aminohexanoic Acid: Synthesis and Evaluation as Plasmin Inhibitors” (International Journal of Peptide Research and Therapeutics, 2016)
Non-standard residues stand in square brackets, D forms with d. Residues, ends and D or L forms follow the SMILES beside them. Ahx = NCCCCCC(=O)O

What was measured:
tPA = target: T1, tPA (Homo sapiens, UniProt P00750); assay: Amidolytic activity of t-PA (substrate S-2288); assay type: biochemical; conditions: for IC50: amidolytic activity, S-2288, tris buffer pH 8.4
T1 construct: purchased Boehringer Ingelheim GmbH (Ingelheim, Germany)
Method: (§1) Determination of amidolytic activity was performed as previously described by (Okada et al. [1988]). Buffer and 0.1 ml of enzyme solution was added to 0.2 ml of examined compound dissolved in 0.15 M NaCl (1–15) (as control 0.15 M NaCl). The buffer and the enzyme solution included: • tris buffer—0.6 ml (pH 8.8), enzyme: urokinase (50 units/ml), synthetic substrate: S-2444 (0.1 ml, 3 mM); • tris buffer—0.5 ml (pH 8.4), enzyme: thrombin (1 units/ml), synthetic substrate: S-2238 (0.2 ml, 0.75 mM); • tris buffer—0.5 ml (pH 7.4), enzyme: plasmin (0.4 units/ml), synthetic substrate: S-2251 (0.2 ml, 3 mM); • […]—0.5 ml (pH 7.5), enzyme: trypsin (0.4 units/ml), synthetic substrate: Bzl-L-Arg–pNA.HCl (0.2 ml, 8 mM); • tris buffer—0.6 ml (pH 9.0), enzyme: kallikrein (3 units/ml), synthetic substrate: S-2266 (0.1 ml, 75 mM); • tris buffer—0.6 ml (pH 8.4), enzyme: t-PA ([…]), synthetic substrate: S-2288 (0.1 ml, 10 mM).
(§2) IC50 values were determined (IC50, Inhibitor Concentration, the concentration at which enzyme activity is inhibited by 50 %). Our results were compared with the 6-aminohexanoic acid.

plasmin [1] = target: T2, plasmin (Homo sapiens, UniProt P00747); assay: Amidolytic activity of plasmin (substrate S-2251); assay type: biochemical; conditions: for IC50: amidolytic activity, S-2251, tris buffer pH 7.4
T2 construct: The amino-terminal heavy chain of PL consists of five kringle domains; The C-terminal light chain of plasmin is a typical serine protease (SP); purchased Chromogenix (Milano, Italy)
Method: as §1, §2

thrombin = target: T3, thrombin (Bos taurus, UniProt P00735); assay: Amidolytic activity of thrombin (substrate S-2238); assay type: biochemical; conditions: for IC50: amidolytic activity, S-2238, tris buffer pH 8.4
T3 construct: purchased Lubelska Wytwórnia Szczepionek (Lublin, Poland)
Method: as §1, §2

uPA = target: T4, uPA (Homo sapiens, UniProt P00749); assay: Amidolytic activity of urokinase (substrate S-2444); assay type: biochemical; conditions: for IC50: amidolytic activity, S-2444, tris buffer pH 8.8
T4 construct: purchased Sigma (Schnelldorf, Germany)
Method: as §1, §2

plasmin [2] = target: T2, plasmin; conditions: ref Midura-Nowaczek et al. [1990]; cited from earlier work
trypsin = assay: Amidolytic activity of trypsin (substrate Bzl-L-Arg-pNA); assay type: biochemical; conditions: for IC50: amidolytic activity, Bzl-L-Arg-pNA, borane buffer pH 7.5
Method: as §1, §2

[3] = tested on: colon cancer cell line DLD-1; assay: Cytotoxicity assay (method of Plumb et al.); assay type: cell-based; conditions: 10, 100, 250, 500 and 1000 μM
Method: (§3) All studies were performed on MCF-7, MDA-MB-231 and DLD cells lines were purchased from American Type Culture Collection (Rockville, MD). The cells were maintained in DMEM supplemented with 5 % fetal bovine serum (FBS), […] glutamine, 50 U/ml penicillin, […] streptomycin at 37 °C in a 5 % CO2 incubator.
(§4) The toxicity of the evaluated peptides was determined by the method of Plumb et al. ([1989]) in 10, 100, 250, 500 and 1000 μM concentrations. MCF-7, MDA-MB-231 and DLD cells were maintained as described above. The detailed description of the method is given by (Markowska et al. [2013]).

MDA-MB-231 cells = assay: Cytotoxicity assay (method of Plumb et al.); assay type: cell-based; conditions: 10, 100, 250, 500 and 1000 μM
Method: as §3, §4

MCF-7 cells = assay: Cytotoxicity assay (method of Plumb et al.); assay type: cell-based; conditions: 10, 100, 250, 500 and 1000 μM
Method: as §3, §4

fibroblast cells = assay: Cytotoxicity assay, normal cells; assay type: cell-based
kallikrein = assay: Amidolytic activity of kallikrein (substrate S-2266); assay type: biochemical; conditions: maximum concentration 20 mM, S-2266, pH 9.0
Method: as §1, §2

[4] = tested on: fibrinolysis in whole blood; assay: Thromboelastometric (ROTEM) analysis of clot formation and fibrinolysis in whole blood; parameters: species or system human; conditions: for clotting time (CT, coagulation time) / lysis of the clot in 45 min (from LI45): human whole blood; for clotting time (CT, coagulation time): control 174 s; for lysis of the clot in 45 min (from LI45): whole blood alone about 61 %; for LOT lysis onset time (clot amplitude reduced by 15 %) / LT lysis time (clot reduced/lysed by 90 %) / LI30 lysis index, amplitude of clot after 30 min / LI45 lysis index, amplitude of clot after 45 min / LI60 lysis index, amplitude of clot after 60 min: recalcified human whole blood; for LOT lysis onset time (clot amplitude reduced by 15 %) / LT lysis time (clot reduced/lysed by 90 %): 140 ng/ml TF, 125 ng/ml tPA; for LI30 lysis index, amplitude of clot after 30 min / LI45 lysis index, amplitude of clot after 45 min / LI60 lysis index, amplitude of clot after 60 min: TF + tPA
Method: Five healthy volunteers, men (age range: 25–34 years)) with normal blood cell counts were entered into the study. Healthy volunteers had not taken medication known to affect platelet function and/or coagulation for at least 10 days before blood sampling.
Blood was stored at room temperature for 30 min after venipuncture and then was evaluated by thromboelastometric analyses.
Thromboelastometric measurements were performed using ROTEM system (Tem International GmbH, Manheim, Germany). […] We measured the parameters characterized kinetic of clot formation (clotting time, alpha angle), clot strength (maximal clot firmness; MCF), and fibrinolysis (percentage reduction of MCF, clot lysis time).

[5] = listed as H–Ala–Phe–Lys–EACA–NH2

T1 sequence (P00750 36-562): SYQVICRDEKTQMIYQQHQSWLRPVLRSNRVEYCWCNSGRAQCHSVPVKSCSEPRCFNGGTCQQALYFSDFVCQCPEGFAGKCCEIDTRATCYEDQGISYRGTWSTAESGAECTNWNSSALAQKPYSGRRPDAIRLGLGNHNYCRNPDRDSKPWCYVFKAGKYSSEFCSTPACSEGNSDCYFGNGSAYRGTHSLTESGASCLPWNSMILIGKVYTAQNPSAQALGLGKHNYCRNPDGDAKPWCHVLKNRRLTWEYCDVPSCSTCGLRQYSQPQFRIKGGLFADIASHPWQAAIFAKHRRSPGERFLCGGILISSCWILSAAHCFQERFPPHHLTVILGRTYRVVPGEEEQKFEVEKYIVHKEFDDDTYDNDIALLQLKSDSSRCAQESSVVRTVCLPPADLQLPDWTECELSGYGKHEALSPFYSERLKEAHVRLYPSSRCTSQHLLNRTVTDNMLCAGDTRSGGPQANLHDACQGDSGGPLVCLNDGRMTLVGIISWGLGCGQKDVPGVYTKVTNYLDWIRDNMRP
T2 sequence (P00747 97-580 limits assumed): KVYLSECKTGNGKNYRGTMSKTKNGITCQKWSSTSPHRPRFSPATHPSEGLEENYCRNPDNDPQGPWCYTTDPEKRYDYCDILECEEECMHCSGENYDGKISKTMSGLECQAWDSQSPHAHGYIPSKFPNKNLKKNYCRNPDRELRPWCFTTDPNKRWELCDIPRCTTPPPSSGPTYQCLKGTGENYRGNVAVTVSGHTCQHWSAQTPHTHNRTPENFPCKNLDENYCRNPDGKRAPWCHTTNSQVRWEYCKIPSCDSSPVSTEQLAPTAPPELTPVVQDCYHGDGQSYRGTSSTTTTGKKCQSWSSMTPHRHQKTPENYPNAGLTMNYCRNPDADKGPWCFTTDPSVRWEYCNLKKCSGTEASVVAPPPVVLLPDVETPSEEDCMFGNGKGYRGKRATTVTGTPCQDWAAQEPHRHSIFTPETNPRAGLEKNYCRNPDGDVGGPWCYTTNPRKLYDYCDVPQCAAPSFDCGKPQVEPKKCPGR
T2 sequence (P00747 581-810 limits assumed): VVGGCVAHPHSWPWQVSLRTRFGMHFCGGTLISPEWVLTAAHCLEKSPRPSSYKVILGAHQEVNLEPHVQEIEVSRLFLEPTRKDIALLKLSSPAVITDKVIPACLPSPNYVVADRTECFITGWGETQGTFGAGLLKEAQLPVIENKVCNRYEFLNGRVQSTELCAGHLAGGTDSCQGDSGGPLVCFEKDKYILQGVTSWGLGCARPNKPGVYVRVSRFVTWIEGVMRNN

Row | Compound | IC50 (tPA) [mM] | IC50 (plasmin [1]) [mM] | IC50 (thrombin) [mM] | IC50 (uPA) [mM] | other results
1 | C[C@@H](N)C(=O)N[C@@H](Cc1ccccc1)C(=O)N[C@@H](CCCCN)C(=O)NCCCCCC(=O)O [Compound 2, H–D-Ala–Phe–Lys–EACA–OH] (H-[dA]FK[Ahx]-OH) | 14.4 ± 1.15 | 3.37 ± 0.27 | 3.85 ± 0.31 | > 20 | 
2 | C[C@H](N)C(=O)N[C@@H](Cc1ccccc1)C(=O)N[C@@H](CCCCN)C(=O)NCCCCCC(=O)NCCCCCN [Compound 13, H–Ala–Phe–Lys–EACA–NH–(CH2)5–NH2] | > 20 | 1.4 ± 0.11 | > 20 | > 20 | 
3 | H–Ala–Phe–Lys–NH–(CH2)5–NH2 |  |  |  |  | plasmin inhibitory activity (plasmin [2]): no plasmin inhibitory activity
4 | NCCCCCNC(=O)CCCCCNC(=O)[C@H](CCCCN)NC(=O)[C@@H](N)Cc1ccccc1 [Compound 11, H–Phe–Lys–EACA–NH–(CH2)5–NH2] | > 20 | 4.82 ± 0.39 | > 20 | > 20 | 
5 | C[C@@H](N)C(=O)N[C@@H](Cc1ccccc1)C(=O)N[C@@H](CCCCN)C(=O)NCCCCCC(=O)NCCCCCN [Compound 12, H–D-Ala–Phe–Lys–EACA–NH–(CH2)5–NH2] | > 20 | 1.11 ± 0.09 | > 20 | > 20 | IC50 (trypsin): > 20 mM
6 | C[C@@H](N)C(=O)N[C@@H](Cc1ccccc1)C(=O)NCCCCCC(N)=O [Compound 9, H–D-Ala–Phe–EACA–NH2] (H-[dA]-Phe-[Ahx]-NH2) | > 20 | 1.55 ± 0.12 | > 20 | > 20 | 
7 | NCCCCCC(=O)O [EACA, 6-aminohexanoic acid] |  |  |  |  | effect on amidolytic activity of tPA (in words) (tPA; maximum concentration 20 mM): No effect; cytotoxic effect / viability of DLD-1 cells [3]: did not display cytotoxicity; cytotoxic effect / viability of MDA-MB-231 cells (MDA-MB-231 cells): did not display cytotoxicity; cytotoxic effect / viability of MCF-7 cells (MCF-7 cells): did not display cytotoxicity; effect on amidolytic activity of trypsin (in words) (trypsin; maximum concentration 20 mM): No effect; effect on amidolytic activity of plasmin (in words) (plasmin [1]; maximum concentration 20 mM): No effect; effect on amidolytic activity of thrombin (in words) (thrombin; maximum concentration 20 mM): No effect; cytotoxic effect / viability of fibroblast cells (fibroblast cells): did not display cytotoxicity; effect on amidolytic activity of uPA (in words) (uPA; maximum concentration 20 mM): No effect; influence on the enzymatic activity of kallikrein (kallikrein): No effect; clotting time (CT, coagulation time) [4]: 137 s; lysis of the clot in 45 min (from LI45) [4]: 1%; LOT lysis onset time (clot amplitude reduced by 15 %) [4]: ≥4084 s; LT lysis time (clot reduced/lysed by 90 %) [4]: ≥168 min; LI30 lysis index, amplitude of clot after 30 min [4]: 100%; LI45 lysis index, amplitude of clot after 45 min [4]: 98%; LI60 lysis index, amplitude of clot after 60 min [4]: 92%
8 | C[C@H](N)C(=O)N[C@@H](Cc1ccccc1)C(=O)N[C@@H](CCCCN)C(=O)NCCCCCC(N)=O [Compound 8, H–Ala–Phe–Lys–EACA–NH2] (H-AFK[Ahx]-NH2) | > 20 | 0.13 ± 0.01 | 7.59 ± 0.61 | > 20 | IC50 (trypsin): > 20 mM; clotting time (CT, coagulation time) [4]: 135 s; lysis of the clot in 45 min (from LI45) [4]: 14%; LOT lysis onset time (clot amplitude reduced by 15 %) [4]: 2731 s; LT lysis time (clot reduced/lysed by 90 %) [4]: about 67 min; LOT lysis onset time (clot amplitude reduced by 15 %) [4, 5]: 2731 ± 160 s; LT lysis time (clot reduced/lysed by 90 %) [4, 5]: 76 ± 6 min; LI30 lysis index, amplitude of clot after 30 min [4]: 99%; LI45 lysis index, amplitude of clot after 45 min [4]: 86%; LI60 lysis index, amplitude of clot after 60 min [4]: 43%
9 | NCCCC[C@H](NC(=O)[C@@H](N)Cc1ccccc1)C(=O)NCCCCCC(N)=O [Compound 6, H–Phe–Lys–EACA–NH2] (H-Phe-Lys-[Ahx]-NH2) | > 20 | 1.43 ± 0.11 | > 20 | > 20 | IC50 (trypsin): > 20 mM
10 | H–D-Ala–Phe–Lys–NH–(CH2)5–NH2 |  |  |  |  | plasmin inhibitory activity (plasmin [2]): no activity
11 | NCCCC[C@H](NC(=O)[C@@H](N)Cc1ccccc1)C(=O)NCCCCCC(=O)O [Compound 1, H–Phe–Lys–EACA–OH] (H-Phe-Lys-[Ahx]-OH) | > 20 | 11.4 ± 0.91 | > 20 | > 20 | 
